The target of this assay is BTK (Homo sapiens (Human), UniProt Q06187). Kind of assay: In vitro BTK kinase assay: BTK-POLYGAT-LS ASSAY.
Setting [1] is: read-out: IC50 (10 uM ATP), 10 uM ATP, in vitro Btk kinase assay, Example 41.

Structures are written as SMILES. Read-outs that look alike come from different tables or passages of the source.

BTK, sequence (Q06187 whole entry): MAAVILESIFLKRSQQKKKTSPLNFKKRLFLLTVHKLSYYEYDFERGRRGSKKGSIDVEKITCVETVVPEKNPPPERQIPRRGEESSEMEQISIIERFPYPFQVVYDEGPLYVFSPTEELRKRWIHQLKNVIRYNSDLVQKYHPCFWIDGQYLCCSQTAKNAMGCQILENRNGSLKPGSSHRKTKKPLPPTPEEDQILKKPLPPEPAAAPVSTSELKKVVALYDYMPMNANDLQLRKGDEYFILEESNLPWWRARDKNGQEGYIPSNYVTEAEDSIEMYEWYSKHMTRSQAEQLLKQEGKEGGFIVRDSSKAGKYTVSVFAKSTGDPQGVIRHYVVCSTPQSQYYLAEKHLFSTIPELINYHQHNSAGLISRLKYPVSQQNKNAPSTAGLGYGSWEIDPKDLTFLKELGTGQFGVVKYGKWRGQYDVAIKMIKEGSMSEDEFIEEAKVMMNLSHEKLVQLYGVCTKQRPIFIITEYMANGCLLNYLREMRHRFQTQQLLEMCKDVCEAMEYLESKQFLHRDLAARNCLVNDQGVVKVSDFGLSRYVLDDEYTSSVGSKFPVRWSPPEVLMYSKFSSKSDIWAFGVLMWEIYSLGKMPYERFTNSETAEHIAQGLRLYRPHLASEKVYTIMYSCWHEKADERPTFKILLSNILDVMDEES

In the case of `C[C@H]1CCN(c2ncnc(N)c2F)C[C@@H]1N1CCCC(Nc2cc(Cl)cc(Cl)c2)C1=O` (stereo partly drawn) [compound 281, trans-1′-(6-Amino-5-fluoropyrimidin-4-yl)-3-(3,5-dichlorophenylamino)-4′-methyl-1,3′-bipiperidin-2-one], the IC50 under setting [1] is less than 100 nM.
Same read-out and setting: the figure for `C[C@H]1CCN(c2ncnc(N)c2F)C[C@@H]1N1CCCC(Nc2cccc(Cl)c2)C1=O` (stereo partly drawn) [compound 282, trans-1′-(6-Amino-5-fluoropyrimidin-4-yl)-3-(3-chlorophenylamino)-4′-methyl-1,3′-bipiperidin-2-one] is less than 100 nM; for `Nc1ncnc(N2C[C@@H](O)C[C@@H](N3CCCC(Nc4cc(Cl)cc(Cl)c4)C3=O)C2)c1F` (stereo partly drawn) [compound 283, (3′R,5′S)-1′-(6-Amino-5-fluoropyrimidin-4-yl)-3-(3,5-dichlorophenylamino)-5′-hydroxy-1,3′-bipiperidin-2-one] it is less than 100 nM.
Take `Nc1ncnc(N2C[C@@H](O)C[C@@H](N3CCCC(Nc4cc(F)cc(Cl)c4)C3=O)C2)c1F` (stereo partly drawn) [compound 284, (3′R, 5′S)-1′-(6-Amino-5-fluoropyrimidin-4-yl)-3-(3-chloro-5-fluorophenylamino)-5′-hydroxy-1,3′-bipiperidin-2-one]: the IC50 lay in the range of 100 to 999 nM.
As for `N#Cc1cnc2[nH]ccc2c1N1CCC[C@@H](N2CCCC(Nc3cc(F)cc(Cl)c3)C2=O)C1` (stereo partly drawn) [compound 285, 4-((3′R)-3-(3-Chloro-5-fluorophenylamino)-2-oxo-1,3′-bipiperidin-1′-yl)-1H-pyrrolo[2,3-b]pyridine-5-carbonitrile], the half-inhibitory concentration (IC50) under setting [1] is less than 100 nM.
For the compound `CNc1ncnc(N2CCC[C@@H](N3CCCC(Nc4cc(F)cc(Cl)c4)C3=O)C2)c1F` (stereo partly drawn) [compound 286, (3′R)-3-(3-Chloro-5-fluorophenylamino)-1′-(5-fluoro-6-(methylamino)pyrimidin-4-yl)-1,3′-bipiperidin-2-one], the half-inhibitory concentration (IC50) is 1000 to 10000 nM.
`CCNc1ncnc(N2CCC[C@@H](N3CCCC(Nc4cc(F)cc(Cl)c4)C3=O)C2)c1F` (stereo partly drawn) [compound 287, (3′R)-3-(3-Chloro-5-fluorophenylamino)-1′-(6-(ethylamino)-5-fluoropyrimidin-4-yl)-1,3′-bipiperidin-2-one] gave an IC50 of 1000 to 10000 nM.
Same read-out and setting: the figure for `CCCNc1ncnc(N2CCC[C@@H](N3CCCC(Nc4cc(F)cc(Cl)c4)C3=O)C2)c1F` (stereo partly drawn) [compound 288, (3′R)-3-(3-Chloro-5-fluorophenylamino)-1′-(5-fluoro-6-(propylamino)pyrimidin-4-yl)-1,3′-bipiperidin-2-one] is 1000 to 10000 nM.
`Nc1ncnc(N2CCC[C@@H](N3CCCC(Nc4cc(F)cc(Cl)c4)C3=O)C2)c1Cl` (stereo partly drawn) [compound 289, (3′R)-1′-(6-Amino-5-chloropyrimidin-4-yl)-3-(3-chloro-5-fluorophenylamino)-1,3′-bipiperidin-2-one] displayed an IC50 of 100 to 999 nM.
As to `CC(C)(C)NC1CCCN([C@@H]2CCCN(c3ncnc(N)c3F)C2)C1=O` (stereo partly drawn) [compound 290, (3′R)-1′-(6-Amino-5-fluoropyrimidin-4-yl)-3-(tert-butylamino)-1,3′-bipiperidin-2-one], the IC50 under setting [1] was more than 10000 nM.
On the same count and under the same terms, the figure for `Nc1ncnc(N2CCC[C@@H](N3CCCC(NCc4ccccc4)C3=O)C2)c1F` (stereo partly drawn) [compound 291, (3′R)-1′-(6-Amino-5-fluoropyrimidin-4-yl)-3-(benzylamino)-1,3′-bipiperidin-2-one] is more than 10000 nM.
As for `CC(C)(C)CNC1CCCN([C@@H]2CCCN(c3ncnc(N)c3F)C2)C1=O` (stereo partly drawn) [compound 292, (3′R)-1′-(6-Amino-5-fluoropyrimidin-4-yl)-3-(neopentylamino)-1,3′-bipiperidin-2-one], under setting [1], the IC50 was more than 10000 nM.
As to `Nc1ncnc(N2CCC[C@@H](N3CCCC(NCC4CCCCC4)C3=O)C2)c1F` (stereo partly drawn) [compound 293, (3′R)-1′-(6-Amino-5-fluoropyrimidin-4-yl)-3-(cyclohexylmethylamino)-1,3′-bipiperidin-2-one], the IC50 under setting [1] is more than 10000 nM.
As to `Nc1ncnc(N2CCC[C@@H](N3CCCC(NC4CCC(F)(F)CC4)C3=O)C2)c1F` (stereo partly drawn) [compound 294, (3′R)-1′-(6-Amino-5-fluoropyrimidin-4-yl)-3-(4,4-difluorocyclohexylamino)-1,3′-bipiperidin-2-one], under setting [1], the IC50 is more than 10000 nM.
The same measure, in the same setting: the figure for `CCOC(=O)c1ccccc1NC1CCCN([C@@H]2CCCN(c3ncnc(N)c3F)C2)C1=O` (stereo partly drawn) [compound 295, Ethyl-2-((3′R)-1′-(6-amino-5-fluoropyrimidin-4-yl)-2-oxo-1,3′-bipiperidin-3-ylamino) benzoate] is more than 10000 nM.
In turn, `CCOC(=O)c1cccc(NC2CCCN([C@@H]3CCCN(c4ncnc(N)c4F)C3)C2=O)c1` (stereo partly drawn) [compound 296, Ethyl 3-((3′R)-1′-(6-amino-5-fluoropyrimidin-4-yl)-2-oxo-1,3′-bipiperidin-3-ylamino) benzoate] displayed a concentration for half-maximal inhibition (IC50) of 1000 to 10000 nM.
With `Nc1ncnc(N2CCC[C@@H](N3CCCC(Nc4ccccc4C(=O)O)C3=O)C2)c1F` (stereo partly drawn) [compound 297, 2-((3′R)-1′-(6-Amino-5-fluoropyrimidin-4-yl)-2-oxo-1,3′-bipiperidin-3-ylamino)benzoic acid], the IC50 was in the range of 1000 to 10000 nM.
Take `Nc1ncnc(N2CCC[C@@H](N3CCCC(Nc4ccc(C(=O)O)cc4)C3=O)C2)c1F` (stereo partly drawn) [compound 298, 4-((3′R)-1′-(6-Amino-5-fluoropyrimidin-4-yl)-2-oxo-1,3′-bipiperidin-3-ylamino)benzoic acid]: under setting [1], the concentration for half-maximal inhibition (IC50) was more than 10000 nM.
The same measure, in the same setting: the figure for `Nc1ncnc(N2CCC[C@@H](N3CCCC(Nc4cccc(C(=O)O)c4)C3=O)C2)c1F` (stereo partly drawn) [compound 299, 3-((3′R)-1′-(6-Amino-5-fluoropyrimidin-4-yl)-2-oxo-1,3′-bipiperidin-3-ylamino)benzoic acid] is more than 10000 nM.
`O=C1C(Nc2cc(Cl)cc(C(F)(F)F)c2)CCCN1[C@@H]1CCCN(c2ncnc3[nH]ccc23)C1` (stereo partly drawn) [compound 300, (3′R)-3-(3-Chloro-5-(trifluoromethyl)phenylamino)-1′-(7H-pyrrolo[2,3-d]pyrimidin-4-yl)-1,3′-bipiperidin-2-one]: under setting [1], the IC50 was less than 100 nM.
Still for that read-out and setting: the figure for `O=C1C(NC2CCCC2)CCCN1[C@@H]1CCCN(c2ncnc3[nH]ccc23)C1` (stereo partly drawn) [compound 303, (3′R)-3-(Cyclopentylamino)-1′-(7H-pyrrolo[2,3-d]pyrimidin-4-yl)-1,3′-bipiperidin-2-one] is more than 10000 nM; for `O=C1C(NC2CCCCC2)CCCN1[C@@H]1CCCN(c2ncnc3[nH]ccc23)C1` (stereo partly drawn) [compound 304, (3′R)-3-(Cyclohexylamino)-1′-(7H-pyrrolo[2,3-d]pyrimidin-4-yl)-1,3′-bipiperidin-2-one] it is more than 10000 nM; for `O=C1C(Nc2cc(Cl)cc(C(F)(F)F)c2)CCCN1[C@@H]1CCCN(c2ncnc3[nH]ncc23)C1` (stereo partly drawn) [compound 305, (3′R)-3-(3-Chloro-5-(trifluoromethyl)phenylamino)-1′-(1H-pyrazolo[3,4-d]pyrimidin-4-yl)-1,3′-bipiperidin-2-one] it is less than 100 nM.
In the case of `Nc1ncnc(N2CCC[C@@H](N3CCCC(Nc4cc(Cl)cc(C(F)(F)F)c4)C3=O)C2)c1F` (stereo partly drawn) [compound 308, (3′R)-1′-(6-Amino-5-fluoropyrimidin-4-yl)-3-(3-chloro-5-(trifluoromethyl)phenylamino)-1,3′-bipiperidin-2-one], where the note is “read-out: IC50 (10 uM ATP)”, the IC50 is less than 100 nM.
Consider `Nc1ncnc(N2CCC[C@@H](N3CCCC(Nc4cc(Cl)c(F)c(Cl)c4)C3=O)C2)c1F` (stereo partly drawn) [compound 309, (3′R)-1′-(6-Amino-5-fluoropyrimidin-4-yl)-3-(3,5-dichloro-4-fluorophenylamino)-1,3′-bipiperidin-2-one], for which, under setting [1], the IC50 was less than 100 nM.
Consider `Nc1ncnc(N2CCC[C@@H](N3CCCC(Nc4cc(C(F)(F)F)cc(C(F)(F)F)c4)C3=O)C2)c1F` (stereo partly drawn) [compound 310, (3′R)-1′-(6-Amino-5-fluoropyrimidin-4-yl)-3-(3,5-bis(trifluoromethyl)phenylamino)-1,3′-bipiperidin-2-one], for which the IC50 under setting [1] was less than 100 nM.
For the compound `Nc1ncnc(N2CCC[C@@H](N3CCC[C@@H](Nc4cc(Cl)cc(C(F)(F)F)c4)C3=O)C2)c1F` [compound 311, (3R,3′R)-1′-(6-Amino-5-fluoropyrimidin-4-yl)-3-(3-chloro-5-(trifluoromethyl)phenylamino)-1,3′-bipiperidin-2-one], the IC50 (read-out: IC50 (10 uM ATP)) was less than 100 nM.
Still for that read-out and setting: the figure for `Nc1ncnc(N2CCC[C@@H](N3CCC[C@H](Nc4cc(Cl)cc(C(F)(F)F)c4)C3=O)C2)c1F` [compound 312, (3S,3′R)-1′-(6-Amino-5-fluoropyrimidin-4-yl)-3-(3-chloro-5-(trifluoromethyl)phenylamino)-1,3′-bipiperidin-2-one] is less than 100 nM.
As to `Nc1ncnc(N2CCC[C@@H](N3CCC[C@@H](Nc4cc(Cl)cc(Cl)c4)C3=O)C2)c1F` [compound 315, (3R,3′R)-1′-(6-Amino-5-fluoropyrimidin-4-yl)-3-(3,5-dichlorophenylamino)-1,3′-bipiperidin-2-one], under setting [1], the IC50 was less than 100 nM.
Still for that read-out and setting: the figure for `O=C1C(Nc2ccccc2S(=O)(=O)N2CCCCC2)CCCN1[C@@H]1CCCN(c2ncnc3[nH]ccc23)C1` (stereo partly drawn) [compound 318, (3′R)-3-(2-(Piperidin-1-ylsulfonyl)phenylamino)-1′-(7H-pyrrolo[2,3-d]pyrimidin-4-yl)-1,3′-bipiperidin-2-one] is less than 100 nM.
On the same count and under the same terms, the figure for `Nc1ncnc(N2CCC[C@@H](N3CCCC(Nc4ccccc4S(=O)(=O)C4CCCCC4)C3=O)C2)c1F` (stereo partly drawn) [compound 320, (3′R)-1′-(6-Amino-5-fluoropyrimidin-4-yl)-3-(2-(cyclohexylsulfonyl)phenylamino)-1,3′-bipiperidin-2-one] is less than 100 nM; for `O=C1[C@H](Nc2cc(Cl)cc(Cl)c2)CCN1[C@H]1CN(c2ncnc3[nH]ccc23)CC[C@@H]1C(F)(F)F` [compound 322] it is less than 100 nM.
`O=C1[C@H](Nc2cc(Cl)cc(Cl)c2)CCN1[C@@H]1CCCN(c2ncnc3[nH]ccc23)C1` [compound 323, (R)-1-((R)-1-(7H-Pyrrolo[2,3-d]pyrimidin-4-yl)piperidin-3-yl)-3-(3,5-dichlorophenylamino)pyrrolidin-2-one]: the IC50 under setting [1] is less than 100 nM.
As for `Nc1ncnc(N2CC[C@H](O)[C@@H](N3CCCC(Nc4cc(F)cc(Cl)c4)C3=O)C2)c1F` (stereo partly drawn) [compound 324, trans-1′-(6-Amino-5-fluoropyrimidin-4-yl)-3-(3-chloro-5-fluorophenylamino)-4′-hydroxy-1,3′-bipiperidin-2-one], the IC50 under setting [1] was less than 100 nM.

The record behind these values is patent publication US9790229B2, “Bruton's tyrosine kinase inhibitors” (priority 2009, dated 2017).
